Experiments:
[1] = tested on: Botrytis cinerea; assay: Evaluation of control effect (preventive value) on cabbage leaf discs; assay type: in vivo; details: 100 ppm test solution sprayed on cabbage leaf discs; Botrytis cinerea spore inoculation; three days after the infection
Protocol: The compounds obtained in Examples 1 to 3 were dissolved in acetone to bring the concentration of the compounds to 1 mg/mL. Ten-fold diluted Neoesterin (manufactured by KUMIAI CHEMICAL INDUSTRY CO., LTD.) (1 μL) was added to 20 μL of the solutions. Further, 180 μL of deionized water was added thereto to regulate the concentration to 100 ppm to prepare test solutions. The control effect was measured by measuring the preventive value of each of the test solutions. The preventive value was calculated by the following method. At the outset, leaves cut by a leaf punch off from the leaves at the third and fourth stages of cabbage were allowed to stand still on a multi-well plate. An appropriate amount of the test solution was sprayed followed by air drying. Next, a spore suspension (2.0×10^5 cells/mL) of Botrytis cinerea was prepared as an inoculating microorganism liquor and was inoculated by spraying in an amount of 20 mL per 7 to 10 multi-well plate. Infection with Botrytis cinerea was carried out in a light shielding chamber (temperature 21° C., humidity about 100%), and the preventive value was calculated three days after the infection. […] 0; No pathogenesis was found. 1; Slight pathogenesis was found. 2; Control effect was found as compared with untreated plot, although diseases were developed. 3; Phathogenesis equivalent to that in untreated plot was found. [formula]

[2] = Evaluation of photostability (residual ratio after exposure to light); assay type: physicochemical; details: dry film exposed to sunlight lamp 24 hr, 25° C., humidity 60%, 30,000 lux, UV 300 to 400 μW/cm^2; HPLC; 0 hr = 100%
Protocol: The compounds obtained in Examples 1 to 3 were dissolved in acetone, and the concentration of the compounds was adjusted to 200 μg/mL (100 μg/mL for the compound of Example 3) to give test solutions. The photostability was determined by measuring the residual ratio of compound after exposure to light. The residual ratio was calculated by the following method. The test solution (500 μL) was dispensed in a glass Petri dish having a diameter of 5 cm, and the solvent was removed by evaporation under light shielding conditions to form a dry film. The dry film was exposed to a sunlight lamp within a chamber (temperature 25° C., humidity 60%) and was recovered 24 hr after the start of the exposure. The exposed film was washed with 500 μL of methanol and was analyzed by HPLC (manufactured by Nihon Waters K.K.). The residual ratio (concentration ratio after the elapse of each hour when the residual ratio at 0 hr was presumed to be 100%) was calculated by regarding the peak area as the concentration of the compound.

[3] = tested on: Rhizoctonia solani; assay: Antimicrobial activity test (extension of hypha); assay type: cell-based; design: key to the marks not given beside the values; details: final concentration 12.5 ppm, 3 days
[4] = tested on: Botrytis cinerea; assay: Antimicrobial activity test (extension of hypha); assay type: cell-based; design: key to the marks not given beside the values; details: final concentration 12.5 ppm, 3 days
[5] = tested on: Leptosphaeria nodorum; assay: Antimicrobial activity test (extension of hypha); assay type: cell-based; design: key to the marks not given beside the values; details: final concentration 12.5 ppm, 3 days
[6] = tested on: Colletotrichum lagenarium; assay: Antimicrobial activity test (extension of hypha); assay type: cell-based; design: key to the marks not given beside the values; details: final concentration 12.5 ppm, 3 days
[7] = tested on: Cercospora beticola; assay: Antimicrobial activity test (extension of hypha); assay type: cell-based; design: key to the marks not given beside the values; details: final concentration 12.5 ppm, 3 days
[8] = tested on: Alternaria kikutiana; assay: Antimicrobial activity test (extension of hypha); assay type: cell-based; design: key to the marks not given beside the values; details: final concentration 12.5 ppm, 3 days
[9] = tested on: Pyricularia oryzae; assay type: cell-based; design: key to the marks not given beside the values; details: final concentration 12.5 ppm, 3 days

SMILES	Preventive value [1]	Residual ratio after 24 hr [2] [%]	Inhibition of extension [3]	Inhibition of extension [4]	Inhibition of extension [5]	Inhibition of extension [6]	Inhibition of extension [7]	Inhibition of extension [8]	Inhibition of extension [9]
C/C=C(\C)[C@H]1[C@@H](/C=C/C=C/C(=O)O)[C@H]2[C@@H]([C@H]3C[C@]31C)[C@@H](O)CC[C@@H]2C [Compound of Example 1, (2E,4E)-5-{(1aR,2R,3S,3aS,4S,7S,7aS,7bR)-2-[(E)-but-2-en-2-yl]-decahydro-7-hydroxy-1a,4-dimethyl-1H-cyclopropa[a]naphthalen-3-yl}penta-2,4-dienoic acid]	92	100							
C/C=C(\C)[C@H]1[C@@H](/C=C/C=C/C(=O)O)[C@H]2[C@@H](C[C@@H]1C)[C@@H](O)CC[C@@H]2C [Compound of Example 2, (2E,4E)-5-{(1S,4S,4aS,5S,6R,7S,8aR)-6-[(E)-but-2-en-2-yl]-decahydro-1-hydroxy-4,7-dimethylnaphthalen-5-yl}penta-2,4-dienoic acid]	100	108							
C/C=C(/C)[C@H]1[C@@H](/C=C/C=C/C(=O)O)[C@H]2[C@@H](C[C@@H]1C)[C@@H](O)CC[C@@H]2C [Compound of Example 3, (2E,4E)-5-{(1S,4S,4aS,5S,6R,7S,8aR)-6-[(Z)-but-2-en-2-yl]-decahydro-1-hydroxy-4,7-dimethylnaphthalen-5-yl}penta-2,4-dienoic acid]	100	95	+++	+++	++	++	+++	++	++

From patent US8324427B2, “Substances analogous to MK8383 and agricultural and horticultural disease control agents” (Meiji Seika Kaisha, Ltd., priority 2008, dated 2012)
